# ChEMBL document CHEMBL2396653, “Synthesis and antimycobacterial evaluation of N-substituted 5-chloropyrazine-2-carboxamides” (Bioorg Med Chem Lett, 2013)
# Activity calls are given as the source filed them. No cut-off for these calls is given here.
# Assays:
# [1] = Stability of the compound at pH 7; type: physicochemical; settings: buffer
# [2] = system: Trichophyton mentagrophytes; experiment: Antifungal activity against Trichophyton mentagrophytes 445 assessed as growth inhibition after 72 to 120 hrs by microbroth dilution method; type: functional, organism-based
# [3] = system: Lichtheimia corymbifera; experiment: Antifungal activity against Absidia corymbifera 272 assessed as growth inhibition after 24 to 48 hrs by microbroth dilution method; type: functional, organism-based
# [4] = system: Aspergillus fumigatus; experiment: Antifungal activity against Aspergillus fumigatus 231 assessed as growth inhibition after 24 to 48 hrs by microbroth dilution method; type: functional, organism-based
# [5] = system: Trichosporon asahii; experiment: Antifungal activity against Trichosporon asahii 1188 assessed as growth inhibition after 24 to 48 hrs by microbroth dilution method; type: functional, organism-based
# [6] = system: Nakaseomyces glabratus; experiment: Antifungal activity against Candida glabrata 20/I assessed as growth inhibition after 24 to 48 hrs by microbroth dilution method; type: functional, organism-based
# [7] = system: Pichia kudriavzevii; experiment: Antifungal activity against Candida krusei E28 assessed as growth inhibition after 24 to 48 hrs by microbroth dilution method; type: functional, organism-based
# [8] = system: Candida albicans; experiment: Antifungal activity against Candida albicans ATCC 44859 assessed as growth inhibition after 24 to 48 hrs by microbroth dilution method; type: functional, organism-based
# [9] = system: Candida tropicalis; experiment: Antifungal activity against Candida tropicalis 156 assessed as growth inhibition after 24 to 48 hrs by microbroth dilution method; type: functional, organism-based
# [10] = system: Klebsiella pneumoniae; experiment: Antibacterial activity against ESBL-positive Klebsiella pneumoniae J 14368/08 clinical isolate assessed as growth inhibition after 24 to 48 hrs by microbroth dilution method; type: functional, organism-based
# [11] = system: Klebsiella pneumoniae; experiment: Antibacterial activity against Klebsiella pneumoniae D 11750/08 clinical isolate assessed as growth inhibition after 24 to 48 hrs by microbroth dilution method; type: functional, organism-based
# [12] = system: Enterococcus; experiment: Antibacterial activity against Enterococcus sp. J 14365/08 clinical isolate assessed as growth inhibition after 24 to 48 hrs by microbroth dilution method; type: functional, organism-based
# [13] = system: Staphylococcus epidermidis; experiment: Antibacterial activity against Staphylococcus epidermidis H 6966/08 clinical isolate assessed as growth inhibition after 24 to 48 hrs by microbroth dilution method; type: functional, organism-based
# [14] = system: Staphylococcus aureus; experiment: Antibacterial activity against methicillin-resistant Staphylococcus aureus H 5996/08 clinical isolate assessed as growth inhibition after 24 to 48 hrs by microbroth dilution method; type: functional, organism-based
# [15] = system: Pseudomonas aeruginosa; experiment: Antibacterial activity against Pseudomonas aeruginosa CCM 1961 assessed as growth inhibition after 24 to 48 hrs by microbroth dilution method; type: functional, organism-based
# [16] = system: Escherichia coli; experiment: Antibacterial activity against Escherichia coli CCM 4517 assessed as growth inhibition after 24 to 48 hrs by microbroth dilution method; type: functional, organism-based
# [17] = system: Staphylococcus aureus; experiment: Antibacterial activity against Staphylococcus aureus CCM 4516/08 assessed as growth inhibition after 24 to 48 hrs by microbroth dilution method; type: functional, organism-based
# [18] = Lipophilicity, log K of the compound by HPLC analysis; type: physicochemical
# [19] = system: Mycobacterium tuberculosis; experiment: Ratio of pyrazinamide MIC to compound MIC for Mycobacterium tuberculosis H37Rv; type: functional
# [20] = system: Mycobacterium avium; experiment: Antimycobacterial activity against Mycobacterium avium CNCTC My 152/73 assessed as growth inhibition after 14 days by microdilution method; type: functional; settings: CNCTC My 152/73, 336 h
# [21] = system: Mycobacterium avium; experiment: Antimycobacterial activity against Mycobacterium avium CNCTC My 80/72 assessed as growth inhibition after 14 days by microdilution method; type: functional; settings: CNCTC My 80/72, 336 h
# [22] = system: Mycobacterium kansasii; experiment: Antimycobacterial activity against Mycobacterium kansasii CNCTC My 235/80 assessed as growth inhibition after 14 days by microdilution method; type: functional; settings: CNCTC My 235/80, 336 h
# [23] = system: Mycobacterium tuberculosis; experiment: Antimycobacterial activity against Mycobacterium tuberculosis H37Rv assessed as growth inhibition after 14 days by microdilution method; type: functional; settings: 336 h
# [24] = system: Mycolicibacterium fortuitum; experiment: Antimycobacterial activity against pyrazinamide-resistant Mycobacterium fortuitum ATCC 49601 assessed as growth inhibition after 24 hrs to 2 weeks by microbroth dilution method; type: functional
# [25] = system: Mycolicibacterium fortuitum; experiment: Antimycobacterial activity against pyrazinamide-resistant Mycobacterium fortuitum ATCC 49403 assessed as growth inhibition after 24 hrs to 2 weeks by microbroth dilution method; type: functional
# [26] = system: Mycobacterium kansasii; experiment: Antimycobacterial activity against pyrazinamide-resistant Mycobacterium kansasii assessed as growth inhibition after 24 hrs to 2 weeks by microbroth dilution method; type: functional
# [27] = system: Mycobacterium tuberculosis; experiment: Antimycobacterial activity against pyrazinamide-susceptible Mycobacterium tuberculosis ATCC 35801 assessed as growth inhibition after 24 hrs to 2 weeks by microbroth dilution method; type: functional
# [28] = system: Mycobacterium tuberculosis; experiment: Antimycobacterial activity against pyrazinamide-susceptible Mycobacterium tuberculosis ATCC 27294 assessed as growth inhibition after 24 hrs to 2 weeks by microbroth dilution method; type: functional
Structure (SMILES),Stability [1],growth inhibition (GI) [2],growth inhibition (GI) [3],growth inhibition (GI) [4],growth inhibition (GI) [5],growth inhibition (GI) [6],growth inhibition (GI) [7],growth inhibition (GI) [8],growth inhibition (GI) [9],growth inhibition (GI) [10],growth inhibition (GI) [11],growth inhibition (GI) [12],growth inhibition (GI) [13],growth inhibition (GI) [14],growth inhibition (GI) [15],growth inhibition (GI) [16],growth inhibition (GI) [17],log K [18],MIC [20] [µg/mL],MIC [21] [µg/mL],other results
O=C(NCc1ccc(Br)cc1)c1cnc(Cl)cn1,Stable,inactive,inactive,inactive,inactive,inactive,inactive,inactive,inactive,inactive,inactive,inactive,inactive,inactive,inactive,inactive,inactive,0.4981,> 100,> 100,Ratio [19]: 3; MIC [22]: 50 µg/mL; MIC [23]: 12.5 µg/mL
NC(=O)c1cnc(Cl)cn1,–,–,–,–,–,–,–,–,–,–,–,–,–,–,–,–,–,–,–,–,MIC [24]: 8 µg/mL; MIC [25]: 8 µg/mL; MIC [26]: 8 µg/mL; MIC [27]: 16 µg/mL; MIC [28]: 16 µg/mL
O=C(NCc1ccc(Cl)cc1Cl)c1cnc(Cl)cn1,Stable,inactive,inactive,inactive,inactive,inactive,inactive,inactive,inactive,inactive,inactive,inactive,inactive,inactive,inactive,inactive,inactive,0.727,> 100,> 100,Ratio [19]: 3; MIC [22]: > 100 µg/mL; MIC [23]: 12.5 µg/mL
O=C(Nc1ccccc1F)c1cnc(Cl)cn1,Stable,inactive,inactive,inactive,inactive,inactive,inactive,inactive,inactive,inactive,inactive,inactive,inactive,inactive,inactive,inactive,inactive,0.4903,> 100,> 100,MIC [22]: 12.5 µg/mL; MIC [23]: 6.25 µg/mL
O=C(NCc1cccc([N+](=O)[O-])c1)c1cnc(Cl)cn1,Stable,inactive,inactive,inactive,inactive,inactive,inactive,inactive,inactive,inactive,inactive,inactive,inactive,inactive,inactive,inactive,inactive,0.1189,> 100,> 100,MIC [22]: 12.5 µg/mL; MIC [23]: > 100 µg/mL
O=C(Nc1ccc(Br)cc1)c1cnc(Cl)cn1,Stable,inactive,inactive,inactive,inactive,inactive,inactive,inactive,inactive,inactive,inactive,inactive,inactive,inactive,inactive,inactive,inactive,0.6601,> 100,> 100,MIC [22]: 6.25 µg/mL; MIC [23]: 3.13 µg/mL
COc1ccc(NC(=O)c2cnc(Cl)cn2)c(OC)c1,Stable,inactive,inactive,inactive,inactive,inactive,inactive,inactive,inactive,inactive,inactive,inactive,inactive,inactive,inactive,inactive,inactive,0.5791,> 100,> 100,MIC [22]: > 100 µg/mL; MIC [23]: > 100 µg/mL
COc1ccc(CNC(=O)c2cnc(Cl)cn2)c(OC)c1,Stable,inactive,inactive,inactive,inactive,inactive,inactive,inactive,inactive,inactive,inactive,inactive,inactive,inactive,inactive,inactive,inactive,0.2266,> 100,> 100,MIC [22]: > 100 µg/mL; MIC [23]: > 100 µg/mL
